# Several values for one entry are separate records, joined by “and”; a condition that tells them apart may be missing. Identical values can stand only once. Like-named read-outs stand apart in the source and are kept apart here.
# How the values were obtained:
# [1] = system: Shionogi mouse mammary carcinoma cells; experiment: Androgenic/antiandrogenic activity on DHT-stimulated Shionogi cell growth; type: cell-based
# Human Androgen Receptor = target: T1, Human Androgen Receptor (Homo sapiens, UniProt P10275); experiment: Androgen receptor binding assay (hydroxylapatite, [3H]R1881, cytosol of transfected HEK-293 cells); conditions: % RBA=100×IC50 R1881/IC50 compound, transfected cells
# T1 sequence (P10275 1-920): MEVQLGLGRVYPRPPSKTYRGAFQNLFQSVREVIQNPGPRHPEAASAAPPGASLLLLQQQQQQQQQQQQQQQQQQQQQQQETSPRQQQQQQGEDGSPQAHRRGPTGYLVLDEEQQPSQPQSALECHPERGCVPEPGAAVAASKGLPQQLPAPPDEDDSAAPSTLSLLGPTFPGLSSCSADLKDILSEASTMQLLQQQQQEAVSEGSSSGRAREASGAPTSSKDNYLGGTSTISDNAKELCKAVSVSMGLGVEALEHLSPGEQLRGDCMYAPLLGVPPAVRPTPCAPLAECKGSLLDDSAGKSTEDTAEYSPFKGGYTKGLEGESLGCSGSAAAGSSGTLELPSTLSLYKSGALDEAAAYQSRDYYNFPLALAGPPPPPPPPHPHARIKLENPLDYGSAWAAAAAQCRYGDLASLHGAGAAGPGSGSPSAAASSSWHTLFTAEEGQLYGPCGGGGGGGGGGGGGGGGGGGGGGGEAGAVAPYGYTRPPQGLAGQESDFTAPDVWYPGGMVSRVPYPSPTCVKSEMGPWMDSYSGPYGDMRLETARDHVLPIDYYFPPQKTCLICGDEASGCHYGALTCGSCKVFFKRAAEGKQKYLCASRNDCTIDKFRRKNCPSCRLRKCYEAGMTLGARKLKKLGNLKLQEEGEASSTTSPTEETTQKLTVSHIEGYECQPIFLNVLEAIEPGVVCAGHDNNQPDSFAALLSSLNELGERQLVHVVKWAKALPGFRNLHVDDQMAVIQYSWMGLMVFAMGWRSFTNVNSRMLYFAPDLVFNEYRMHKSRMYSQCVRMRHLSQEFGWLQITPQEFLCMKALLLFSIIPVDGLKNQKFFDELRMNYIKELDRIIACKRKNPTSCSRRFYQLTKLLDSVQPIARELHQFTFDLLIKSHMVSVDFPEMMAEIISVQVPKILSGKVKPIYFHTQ
# rat prostate = experiment: Systemic antiandrogenic activity, orchidectomized immature male rats with DHT implant: prostate weight; type: in vivo; conditions: Rattus norvegicus, sc, 168 h, read-out: IN VIVO Rat s.c. (+DHT) Prostate % inhibition, s.c., 0.5 mg/animal once daily for 7 days, +DHT
# Description: Immature male rats (Crl:CD(SD)Br) 22 to 24-day old were obtained from Charles-River, Inc. (St-Constant, Quebec, Canada) and housed up to 5 per cage in plastic bins in a temperature (23±1° C.)- and light (12 h light/day, lights on at 7 h15)-controlled environment. The rats were fed rodent chow and tap water ad libitum. The day following their arrival, the animals were orchidectomized (CX) under Isoflurane anesthesia via scrotal route and randomly assigned to groups of 5 animals.
# Compounds were solubilized (when possible) in dimethylsulfoxide (DMSO, 10% final concentration) and administered as suspension in 0.4% methylcellulose. […] One group of animals received the antiandrogen Flutamide as reference. The animals were killed by cervical dislocation under isoflurane anesthesia on the 8th morning following castration. The ventral prostate and seminal vesicles were rapidly dissected and weighed.
# W is the weight of the prostate or the seminal vesicle.
# [2] = Mus musculus, read-out: Shionogi Antiandrogenic activity IC50 (nM), inhibition of DHT-stimulated Shionogi cell number
# [3] = read-out: Shionogi Antiandrogenic activity IC50, inhibition of DHT-stimulated Shionogi cell number
SMILES,"IC50 [1, 2]",Androgen Receptor Binding (%) Human RBA R1881 = 100 (Human Androgen Receptor),inhibition in vivo at 0.5 mg (rat prostate),"IC50 [1, 3]"
C[C@]1(O)CCC2C3CCC4=CC(=O)CCC4C3CC[C@@]21CCOc1cccc(CN2CCCCC2)c1 (stereo partly drawn) [EM-6654],9.5 nM,25%,0%,–
CCC(CC)NC(CC)c1ccc(F)c(OCC[C@]23CCC4C(CCC5CC(=O)CC[C@@]54C)C2CC[C@@H]3O)c1 (stereo partly drawn) [EM-6449],0.9 nM,103%,–,–
CCCCN1CCCCC1c1ccc(C)c(OCC[C@]23CCC4C(CCC5CC(=O)CC[C@@]54C)C2CC[C@@H]3O)c1 (stereo partly drawn) [EM-6261],6.4 nM,66% and 73%,–,–
CCCCC(NC(CC)CC)c1cccc(OCC[C@]23CCC4C(CCC5CC(=O)CC[C@@]54C)C2CCC3O)c1 (stereo partly drawn) [EM-6906],0.5 nM,372%,–,–
CCC[C@H](NC(CC)CC)c1cccc(OCC[C@]23CCC4C(CCC5CC(=O)CC[C@@]54C)C2CC[C@@H]3O)c1.Cl (stereo partly drawn) [EM-6557],–,31%,–,0.3 nM
CCC(NC1CCCCC1)c1cc(OCC[C@]23CCC4C(CCC5=CC(=O)CC[C@@]54C)C2CCC3O)ccn1 (stereo partly drawn) [EM-7166],3.5 nM,22.3%,–,–
CCC(CC)CNC(CC)(CC)c1cccc(OCC[C@]23CCC4C(CCC5CC(=O)CC[C@@]54C)C2CCC3=O)c1 (stereo partly drawn) [EM-7002],23 nM,2088%,–,–
CCC(NC1CCCC1)c1cc(OCC[C@]23CCC4C(CCC5=CC(=O)CC[C@@]54C)C2CCC3O)ccn1 (stereo partly drawn) [EM-7165],1.4 nM,26.6%,–,–
CCC(NC1CCOCC1)c1cccc(OCC[C@]23CCC4C(CCC5Cc6n[nH]cc6C[C@@]54C)C2CCC3O)c1 (stereo partly drawn) [EM-6867],4.4 nM,11.3%,–,–
C[C@H](c1cccc(OCC[C@]23CCC4C(CCC5C[C@@H](O)CC[C@@]54C)C2CC[C@@H]3O)c1)N(C)C1CCCCC1 (stereo partly drawn) [EM-6555],5.6 nM,4.6%,–,–
CO[C@H]1CCC2C3CCC4CC(=NO)CC[C@]4(C)C3CC[C@@]21CCOc1cccc(C(C)NC2CCCCC2)c1 (stereo partly drawn) [EM-6533],8.6 nM,10%,–,–
COCC(NC1CCCCC1)c1cncc(OCC[C@]23CCC4C(CCC5=CC(=O)CC[C@@]54C)C2CCC3O)c1 (stereo partly drawn) [EM-7184],7.4 nM,57%,–,–
CCC(NC1CCOCC1)c1cccc(OCC[C@]23CCC4C(CCC5CC=CC[C@@]54C)C2CCC3O)c1 (stereo partly drawn) [EM-6791],45.5 nM,50.2%,–,–
CCC(CC)NCc1ccc(F)c(OCC[C@]23CCC4C(CCC5CC(=NO)CC[C@@]54C)C2CC[C@@H]3O)c1 (stereo partly drawn) [EM-6409],1 nM,16%,–,–
C[C@]12CCC(=O)CC1CCC1C2CC[C@@]2(CCOc3cccc(CNC4CC5CCC4C5)c3)C1CC[C@@H]2O (stereo partly drawn) [EM-6471],–,13%,–,6.4 nM and 9.6 nM
C[C@@H]1C(NCc2cccc(OCC[C@]34CCC5C(CCC6CC(=O)CC[C@@]65C)C3CC[C@@H]4O)c2)CCC[C@@H]1C (stereo partly drawn) [EM-6437],4 nM,80%,–,–
CCCC(NC1CCCC1)c1cccc(OCC[C@]23CCC4C(CCC5CC(=O)CC[C@@]54C)C2CC[C@@H]3O)c1 (stereo partly drawn) [EM-6738],1.7 nM,174.2%,–,–
CCC(NC1CCCCC1)c1cncc(OCC[C@]23CCC4C(CCC5CC(=O)CC[C@@]54C)C2CCC3O)c1 (stereo partly drawn) [EM-7093],0.16 nM,361.8%,–,–

SMILES,"IC50 [1, 2]",Androgen Receptor Binding (%) Human RBA R1881 = 100 (Human Androgen Receptor),inhibition in vivo at 0.5 mg (rat prostate),"IC50 [1, 3]"
CCC(NC1CCCC1)c1cccc(OCC[C@]23CCC4C(CCC5CC(=O)CC[C@@]54C)C2CC[C@@H]3O)c1 (stereo partly drawn) [EM-6537],0.4 nM,88%,–,0.3 nM
CCCCC(NC1CCCCC1)c1cccc(OCC[C@]23CCC4C(CCC5CC(=O)CC[C@@]54C)C2CCC3=O)c1 (stereo partly drawn) [EM-6894],4.1 nM,129.7%,–,–
CCC(NC1CCCCC1)c1cncc(OCC[C@]23CCC4C(CCC5=CC(=O)CC[C@@]54C)C2CCC3O)c1 (stereo partly drawn) [EM-7094],1.4 nM,70.8%,–,–
CC(C)CCN1CCCCC1c1cccc(OCC[C@]23CCC4C(CCC5CC(=O)CC[C@@]54C)C2CC[C@@H]3O)c1 (stereo partly drawn) [EM-6492],9.6 nM,68% and 115%,–,7.1 nM
CCCC(NC1CCCC1)c1cccc(OCC[C@]23CCC4C(CCC5CC(=O)CC[C@@]54C)C2CCC3=O)c1 (stereo partly drawn) [EM-6739],2.4 nM,132.5%,–,–
CCC(NC1CCOCC1)c1cccc(OCC[C@]23CCC4C(CCC5Cc6nocc6C[C@@]54C)C2CCC3O)c1 (stereo partly drawn) [EM-6908],7.4 nM,13%,–,–
CCC(NC1CCSCC1)c1cccc(OCC[C@]23CCC4C(CCC5CC(=O)CC[C@@]54C)C2CCC3O)c1 (stereo partly drawn) [EM-6844],2.1 nM,506%,–,–
CC[C@@H](NC1CCCCC1)c1cccc(OCC[C@]23CCC4C(CCC5CC(=O)CC[C@@]54C)C2CCC3=O)c1 (stereo partly drawn) [EM-7063],0.51 nM,115%,–,–
CCC(Cc1cccc(OCC[C@]23CCC4C5CCC(=O)C=C5CCC4C2CC[C@@H]3O)c1)NC1CCCC1 (stereo partly drawn) [EM-6753],19 nM,8.2%,0%,–
CC(C)(NCc1ccccc1)c1cccc(OCC[C@]23CCC4C(CCC5CC(=O)CC[C@@]54C)C2CC[C@@H]3O)c1 (stereo partly drawn) [EM-6708],27.5 nM,62%,–,–
CC[C@H](NC1CCCCC1)c1cccc(OCC[C@]23CCC4C(CCC5CC(=O)CC[C@@]54C)C2CCC3O)c1 (stereo partly drawn) [EM-7055],0.64 nM,242%,–,–
CCCC(NC1CCCCC1)c1cccc(OCC[C@]23CCC4C(CCC5CC(=O)CC[C@@]54C)C2CC[C@@H]3O)c1 (stereo partly drawn) [EM-6737],1.6 nM,292.5%,–,–
Cc1ccc(CNC2CCCCC2)cc1OCC[C@]12CCC3C(CCC4CC(=O)CC[C@@]43C)C1CC[C@@H]2O (stereo partly drawn) [EM-6453],4.7 nM,33%,–,–
CCC(NC(C)CC(F)(F)F)c1cccc(OCC[C@]23CCC4C(CCC5CC(=O)CC[C@@]54C)C2CC[C@@H]3O)c1 (stereo partly drawn) [EM-6700],49.9 nM,670%,–,–
CCC(NC1CCOCC1)c1cccc(OCC[C@]23CCC4C(CCC5=CC(=O)CC[C@@]54C)C2CCC3O)c1 (stereo partly drawn) [EM-6765],0.2 nM,34.6%,–,–
O=C1C=C2CCC3C(CC[C@@]4(CCOc5cccc(CNC6CCCCC6)c5)C3CC[C@@H]4O)C2CC1 (stereo partly drawn) [EM-6577],57 nM,3.4%,–,–
CC(C)CNCc1cccc(OCC[C@]23CCC4C(CCC5CC(=O)CC[C@@]54C)C2CC[C@@H]3O)c1 (stereo partly drawn) [EM-6307],2.5 nM,99%,–,2.9 nM

# From patent US9090651B2, “Helix 12 directed pharmaceutical products” (ENDORECHERCHE, INC., priority 2004, dated 2015)
